Values after ≈ are worked out from the molar mass of the structure shown. Active and inactive are the calls of the source. The rule behind the calls is not given here.
How the values were obtained:
[1] = system: Staphylococcus aureus; assay: Antibacterial activity against methicillin-sensitive Staphylococcus aureus after 18 to 20 hrs by CLSI-protocol based broth microdilution method; type: functional
[2] = system: Staphylococcus aureus; assay: Antibacterial activity against methicillin-resistant Staphylococcus aureus after 18 to 20 hrs by CLSI-protocol based broth microdilution method; type: functional
[3] = system: Staphylococcus epidermidis; assay: Antibacterial activity against methicillin-sensitive Staphylococcus epidermidis after 18 to 20 hrs by CLSI-protocol based broth microdilution method; type: functional
[4] = system: Staphylococcus epidermidis; assay: Antibacterial activity against methicillin-resistant Staphylococcus epidermidis after 18 to 20 hrs by CLSI-protocol based broth microdilution method; type: functional
[5] = system: Streptococcus pneumoniae; assay: Antibacterial activity against penicillin-resistant Streptococcus pneumoniae after 18 to 20 hrs by CLSI-protocol based broth microdilution method; type: functional
[6] = system: Streptococcus pyogenes; assay: Antibacterial activity against Streptococcus pyogenes after 18 to 20 hrs by CLSI-protocol based broth microdilution method; type: functional
[7] = system: Neisseria gonorrhoeae; assay: Antibacterial activity against Neisseria gonorrhoeae after 18 to 20 hrs by CLSI-protocol based agar microdilution method; type: functional
[8] = biological target: Voltage-gated inwardly rectifying potassium channel KCNH2 (Homo sapiens, UniProt Q12809); assay: Inhibition of human ERG expressed in CHO cells in at -80 mV holding potential by automated Qpatch clamp assay; type: cell-based
[9] = Streptococcus pyogenes, read-out: MIC

Sequence of Voltage-gated inwardly rectifying potassium channel KCNH2 (Q12809 whole entry): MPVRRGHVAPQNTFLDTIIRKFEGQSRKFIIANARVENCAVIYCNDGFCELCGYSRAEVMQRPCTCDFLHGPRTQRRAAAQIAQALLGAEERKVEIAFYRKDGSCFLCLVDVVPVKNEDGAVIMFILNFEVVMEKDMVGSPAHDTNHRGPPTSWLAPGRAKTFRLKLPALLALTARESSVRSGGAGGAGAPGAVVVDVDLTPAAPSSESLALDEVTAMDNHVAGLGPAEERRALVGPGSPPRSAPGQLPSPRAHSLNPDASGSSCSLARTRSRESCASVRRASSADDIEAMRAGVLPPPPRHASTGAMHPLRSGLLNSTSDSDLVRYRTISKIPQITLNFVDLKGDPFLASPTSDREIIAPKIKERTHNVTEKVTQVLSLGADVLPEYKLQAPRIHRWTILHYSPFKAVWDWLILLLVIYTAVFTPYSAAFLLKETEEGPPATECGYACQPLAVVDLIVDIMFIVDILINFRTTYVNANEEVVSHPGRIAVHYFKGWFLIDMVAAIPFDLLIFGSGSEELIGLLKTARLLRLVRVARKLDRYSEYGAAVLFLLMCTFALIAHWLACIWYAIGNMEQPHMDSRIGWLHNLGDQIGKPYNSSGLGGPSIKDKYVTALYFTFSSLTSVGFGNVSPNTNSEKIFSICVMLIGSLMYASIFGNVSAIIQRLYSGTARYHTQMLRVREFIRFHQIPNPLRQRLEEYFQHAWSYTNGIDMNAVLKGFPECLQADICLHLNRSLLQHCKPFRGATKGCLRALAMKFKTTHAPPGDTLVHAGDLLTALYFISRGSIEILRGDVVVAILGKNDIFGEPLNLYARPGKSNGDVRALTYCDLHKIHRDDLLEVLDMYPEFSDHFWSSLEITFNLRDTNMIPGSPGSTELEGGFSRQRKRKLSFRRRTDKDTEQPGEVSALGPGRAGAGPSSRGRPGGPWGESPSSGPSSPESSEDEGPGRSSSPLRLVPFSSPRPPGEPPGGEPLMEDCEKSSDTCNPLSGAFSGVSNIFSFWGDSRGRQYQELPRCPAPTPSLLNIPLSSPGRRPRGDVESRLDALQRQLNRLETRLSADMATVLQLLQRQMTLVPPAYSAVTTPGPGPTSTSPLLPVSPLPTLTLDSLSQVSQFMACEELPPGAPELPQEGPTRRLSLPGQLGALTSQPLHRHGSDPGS

Compound	MIC ([1]; Staphylococcus aureus, read-out: MIC)	MIC [2]	MIC [3]	MIC [4]	MIC [5]	MIC [6, 9]	MIC50 [7]	MIC90 [7]	IC50 [8]	MIC [1]	MIC [6]
C[C@@H]1CN2c3c(cc4c(N5CCSC5=O)noc4c3F)CC3(C(=O)NC(=O)NC3=O)[C@H]2[C@H](C)O1	≤ 0.03 µg/mL	< 0.03 µg/mL	< 0.03 µg/mL	< 0.03 µg/mL	≤ 0.03 µg/mL	< 0.03 µg/mL	0.03 µg/mL (≈ 0.0613 µM)	0.06 µg/mL (≈ 0.123 µM)	> 40 µM	–	–
C[C@@H]1CN2c3c(cc4c(N5CC6(CC6)OC5=O)noc4c3F)CC3(C(=O)NC(=O)NC3=O)[C@H]2[C@H](C)O1 (racemic)	–	0.03 to 0.125 µg/mL (≈ 0.0601 to 0.25 µM)	≤ 0.03 µg/mL	≤ 0.03 µg/mL	≤ 0.03 µg/mL	≤ 0.03 µg/mL	–	–	–	<0.03 µg/mL	–
C[C@@H]1CN2c3c(cc4c(N5C(=O)OC[C@@H]5C)noc4c3F)CC3(C(=O)NC(=S)NC3=O)[C@H]2[C@H](C)O1	–	inactive	inactive	inactive	inactive	–	–	–	–	inactive	inactive
